In patent publication US4478849A, “Secondary amines, their preparation and use in pharmaceutical compositions” (Beecham Group Limited, priority 1978, dated 1984):

Assays:
genetically obese mice = test: carcass lipid of genetically obese mice after daily oral dosing for 28 days (anti-obesity); format: in vivo, mouse (genetically obese); settings: for g - lipid per mouse, Treated: daily for 28 days; for anti-obesity activity (in words): general statement, no dose given
Procedure: (i) The compounds and a comparison compound (salbutamol) were dosed daily in water or carboxymethylcellulose suspension to genetically obese mice by oral gavage for 28 days. At the end of that time the carcass composition was determined.

blood glucose = test: hypoglycaemic activity: reduction in area under blood glucose curve after glucose load in fasted mice; format: in vivo, female CFLP mice; settings: for inhibition in vivo at 5 mg/kg: Mus musculus, po, 2 h; for anti-hyperglycaemic activity (in words): general statement, no dose given
Procedure: Female CFLP mice, weighing approximately 25 g, were fasted for 24 hours prior to the study. The compounds under study were dosed orally (20 mg and 5 mg/kg) to each of 8 mice. 30 minutes later a blood sample ([…]) was obtained from the tail for the analysis of blood glucose. Immediately after taking this blood sample, each mouse was given a glucose load (1 g/kg body weight sub-cutaneously). Blood samples were then obtained from each mouse at 30 minute intervals for 120 minutes.
Compounds that produced a significant (P<0.05) reduction of blood glucose, compared with control mice given water, at any time interval were considered active. The area under the blood glucose curve over the 2 hour period after giving the glucose load was calculated for each compound and compared with the value for control animals. Thus a compound would give a 100% reduction in the area under the blood glucose curve if the blood glucose was maintained at the same level as in untreated fasted animals. Reduction in the glucose curve of more than 100% indicate that a compound, in spite of being given a glucose load, maintained blood glucose levels below that found in control fasted mice.

[1] = relative potency / activity (test not specified)
CFLP mice = test: acute toxicity, single lethal dose; format: in vivo; settings: po
Text: Other compounds of the invention have similar low toxicities.

[2] = test system: 5-hydroxytryptamine-induced bronchoconstriction; test: bronchodilator potency in anaesthetised artificially respired guinea pig (Konzett-Rossler preparation); format: in vivo; settings: inhibition of 5-hydroxytryptamine-induced bronchoconstriction
[3] = 10 mg/kg po, control 18.3 ± 0.6 (Ex. 7), 16.5 ± 0.7 (Ex. 16, 21)
[4] = 5 mg/kg po, 30 min before glucose load 1 g/kg sc, 2 hour period, versus control mice
[5] = 11 mg/kg po, control 18.9 ± 0.66 (Ex. 12), 17.0 ± 0.67 (Ex. 17)
[6] = 9 mg/kg po, control 18.9 ± 0.66

| Structure (SMILES) | anti-obesity activity (in words) (genetically obese mice) | inhibition in vivo at 5 mg/kg (blood glucose; [4]) [%] | anti-hyperglycaemic activity (in words) (blood glucose) | further results |
| --- | --- | --- | --- | --- |
| COC(=O)c1ccc(CCC(C)NCC(O)c2ccc(O)c(CO)c2)cc1 (centres unmarked) [Example 7] | particularly worthy of mention in view of their anti-obesity activity | 110 | particularly worthy of mention in view of their anti-hyperglycaemic activity | g - lipid per mouse, Treated (genetically obese mice; [3]): 14.3 ± 0.4 g |
| COC(=O)c1ccc(CC(C)NCC(O)c2ccc(O)c(CO)c2)cc1 (centres unmarked) [21 (higher melting), N-[2-(4-carbomethoxyphenyl)-1-methylethyl]-2-hydroxy-2-(4-hydroxy-3-hydroxymethylphenyl) ethanamine] | particularly worthy of mention in view of their anti-obesity activity | – | particularly worthy of mention in view of their anti-hyperglycaemic activity | relative potency / activity (in words) [1]: more potent diastereoisomer |
| CCOC(=O)c1ccc(CC(C)NCC(O)c2ccc(O)c(CO)c2)cc1 (centres unmarked) [Example 16, N-[2-(4-Carboethoxyphenyl)-1-methylethyl]-2-hydroxy-2-(4-hydroxy-3-hydroxymethylphenyl) ethanamine] | particularly worthy of mention in view of their anti-obesity activity | – | – | g - lipid per mouse, Treated (genetically obese mice; [3]): 12.9 ± 0.8 g |
| CC(Cc1ccc(C(=O)O)cc1)NCC(O)c1ccccc1 (centres unmarked) [Example 44, N-[2-(4-Carboxyphenyl)-1-methylethyl]-2-hydroxy-2-phenylethanamine] | particularly worthy of mention in view of their anti-obesity activity | – | – | – |
| COC(=O)c1ccc(CC(C)NCC(O)c2ccccc2)c(Cl)c1 (centres unmarked) [Example 23, N-(2-[4-Carbomethoxy-2-chlorophenyl]-1-methylethyl)-2-hydroxy-2-phenylethanamine] | particularly worthy of mention in view of their anti-obesity activity | – | – | – |
| COC(=O)c1ccc(CC(C)NCC(O)c2ccc(O)c(CO)c2)c(OC)c1 (centres unmarked) [Example 12, N-[2-(4-Carbomethoxy-2-methoxyphenyl)-1-methylethyl]-2-hydroxy-2-(4-hydroxy-3-hydroxymethylphenyl)ethanamine] | particularly worthy of mention in view of their anti-obesity activity | 168 | particularly worthy of mention in view of their anti-hyperglycaemic activity | g - lipid per mouse, Treated (genetically obese mice; [5]): 16.2 ± 0.42 g |
| COC(=O)c1ccc(CCCC(C)NCC(O)c2ccc(O)c(CO)c2)cc1 (centres unmarked) [Example 17] | particularly worthy of mention in view of their anti-obesity activity | 84 | particularly worthy of mention in view of their anti-hyperglycaemic activity | g - lipid per mouse, Treated (genetically obese mice; [5]): 14.0 ± 0.97 g |
| COC(=O)c1ccc(CC(C)NCC(O)c2ccccc2)c(OC)c1 (centres unmarked) [Example 24, N-(2-[4-Carbomethoxy-2-methoxyphenyl]-1-methylethyl)-2hydroxy-2-phenylethanamine] | particularly worthy of mention in view of their anti-obesity activity | – | – | – |
| COC(=O)c1ccc(CC(C)NCC(O)c2ccccc2Cl)cc1 (centres unmarked) [Example 28, N-(2-[4-Carbomethoxyphenyl]-1-methylethyl)-2-(2-chlorophenyl)-2-hydroxyethanamine] | – | 37 | – | g - lipid per mouse, Treated (genetically obese mice; 19 mg/kg po, control 17.0 ± 0.67): 14.9 ± 0.37 g |
| COC(=O)c1ccc(CC(C)NCC(O)c2ccc(O)c(CO)c2)cc1 (centres unmarked) [Example 1] | particularly worthy of mention in view of their anti-obesity activity | 157 | particularly worthy of mention in view of their anti-hyperglycaemic activity | g - lipid per mouse, Treated (genetically obese mice; 8 mg/kg po, control 23.3 ± 0.7): 20.8 ± 0.7 g; single lethal dose (CFLP mice): > 900 mg/kg; bronchodilator potency relative to salbutamol [2]: one twelfth as potent as salbutamol |
| COC(=O)c1ccc(CC(C)NCC(O)c2cc(Cl)c(N)c(Cl)c2)cc1 (centres unmarked) [Example 30, N-(2-[4-Carbomethoxyphenyl]-1-methylethyl)-2-(4-amino-3,5-dichlorophenyl)-2-hydroxyethanamine] | particularly worthy of mention in view of their anti-obesity activity | 141 | particularly worthy of mention in view of their anti-hyperglycaemic activity | g - lipid per mouse, Treated (genetically obese mice; 22 mg/kg po, control 19.1 ± 0.47): 14.0 ± 0.57 g |
| COC(=O)c1ccc(CC(C)NCC(O)c2ccccc2)cc1 (centres unmarked) [Example 59 (mp 83°-4°), N-[2-(4-carbomethoxyphenyl)-1-methylethyl]-2-hydroxy-2-phenylethanamine] | – | – | – | relative potency / activity (in words) [1]: more potent diastereoisomer |
| COC(=O)c1ccc(CC(C)(C)NCC(O)c2ccccc2)cc1 (centres unmarked) [Example 26, N-(2-[4-Carbomethoxyphenyl]-1,1-dimethylethyl)-2-hydroxy-2-phenylethanamine] | particularly worthy of mention in view of their anti-obesity activity | – | – | g - lipid per mouse, Treated (genetically obese mice; [6]): 16.4 ± 1.2 g |
| CC(C)(C)NCC(O)c1ccc(O)c(CO)c1 (centres unmarked) [Salbutamol, reference compound] | – | – | – | g - lipid per mouse, Treated (genetically obese mice; 25 mg/kg po, control 23.0 ± 0.3): 23.1 ± 0.6 g |
| COC(=O)c1ccc(CC(C)NCC(O)c2ccc(O)c(CO)c2)cc1 (centres unmarked) [21 (mp 140.5-143.5°), N-[2-(4-carbomethoxyphenyl)-1-methylethyl]-2-hydroxy-2-(4-hydroxy-3-hydroxymethylphenyl) ethanamine] | – | – | – | g - lipid per mouse, Treated (genetically obese mice; [3]): 12.7 ± 0.8 g; Reduction in area under blood glucose curve (%) (blood glucose; [4]): 153% |
| COC(=O)c1ccc(CC(C)NCC(O)c2ccc(O)c(NS(C)(=O)=O)c2)cc1 (centres unmarked) [Example 37, N-(2-[4-Carbomethoxyphenyl]-1-methylethyl)-2-(4-hydroxy-3-methanesulphonamidophenyl)-2-hydroxyethanamine] | particularly worthy of mention in view of their anti-obesity activity | – | – | – |
| COC(=O)c1ccc(CC(C)NCC(O)c2ccccc2)cc1 (centres unmarked) [Example 22, N-(2-[4-Carbomethoxyphenyl]-1-methylethyl)-2-hydroxy-2-phenylethanamine] | particularly worthy of mention in view of their anti-obesity activity | 172 | particularly worthy of mention in view of their anti-hyperglycaemic activity | g - lipid per mouse, Treated (genetically obese mice; [6]): 13.9 ± 0.65 g |
| CC(Cc1ccc(C(=O)OC(C)C)cc1)NCC(O)c1ccc(O)c(CO)c1 (centres unmarked) [Example 13, N-[2-(4-Carboisopropoxyphenyl)-1-methylethyl]-2-hydroxy-2-(4-hydroxy-3-hydroxymethylphenyl)ethanamine] | particularly worthy of mention in view of their anti-obesity activity | – | – | – |
| COC(=O)c1ccc(CC(C)NCC(O)c2ccc(O)c(CO)c2)cc1OC (centres unmarked) [Example 10, N-[2-(4-Carbomethoxy-3-methoxyphenyl)-1-methylethyl]-2-hydroxy-2-(4-hydroxy-3-hydroxymethylphenyl)ethanamine] | particularly worthy of mention in view of their anti-obesity activity | – | – | – |
| COC(=O)c1ccc(CC(C)NCC(O)c2ccc(O)c(CO)c2)cc1C (centres unmarked) [Example 14, N-[2-(4-Carbomethoxy-3-methylphenyl)-1-methylethyl]-2-hydroxy-2-(4-hydroxy-3-hydroxymethylphenyl)ethanamine] | particularly worthy of mention in view of their anti-obesity activity | – | – | g - lipid per mouse, Treated (genetically obese mice; 10.5 mg/kg po, control 17.0 ± 0.67): 14.3 ± 0.61 g |
